This passage reports IC50 results from US20250277012A1 (Protagonist Therapeutics, Inc., priority 2021, published 2025).

Positions of bridges follow the written chain, without caps; N, C: chain ends. Non-standard residues stand in square brackets, D forms with d. Residues, ends and D or L forms follow the SMILES beside them. Groups on a side chain read outwards from the residue. *: point of attachment. X2 = C[N+](C)(CCNC(=O)CCCCCCCCCCCCCCCCC(=O)O)CC(=O)NCC[N+](C)(C)CC(=O)*; CH3O(CH2CH2O)11CH2CH2CO = COCCOCCOCCOCCOCCOCCOCCOCCOCCOCCOCCOCCC(=O)*; X1 = C[N+](C)(CCNC(=O)CCCCCCCCCCCCCCCCC(=O)O)CC(=O)*; X5 = CCCCCCCCCCCCCCCC(=O)NCC[N+](C)(C)CC(=O)*; C18 diacid = O=C(O)CCCCCCCCCCCCCCCCC(=O)*; Dip = N[C@H](C(=O)O)C(c1ccccc1)c1ccccc1; Pro(3R-OH) = O=C(O)[C@H]1NCC[C@H]1O; Palmitoyl = CCCCCCCCCCCCCCCC(=O)*; NMeT = CN[C@H](C(=O)O)[C@@H](C)O; 3Pal = N[C@@H](Cc1cccnc1)C(=O)O; β3hF = N[C@H](CC(=O)O)Cc1ccccc1; Aad = N[C@@H](CCCC(=O)O)C(=O)O; NMeK = CN[C@@H](CCCCN)C(=O)O; Isovaleryl = CC(C)CC(=O)*; Dap = NC[C@H](N)C(=O)O; AEEA = NCCOCCOCC(=O)O; Ahx = NCCCCCC(=O)O

One assay deals with T1, ferroportin (Homo sapiens, UniProt Q9NP59).
T1 sequence (Q9NP59 1-571): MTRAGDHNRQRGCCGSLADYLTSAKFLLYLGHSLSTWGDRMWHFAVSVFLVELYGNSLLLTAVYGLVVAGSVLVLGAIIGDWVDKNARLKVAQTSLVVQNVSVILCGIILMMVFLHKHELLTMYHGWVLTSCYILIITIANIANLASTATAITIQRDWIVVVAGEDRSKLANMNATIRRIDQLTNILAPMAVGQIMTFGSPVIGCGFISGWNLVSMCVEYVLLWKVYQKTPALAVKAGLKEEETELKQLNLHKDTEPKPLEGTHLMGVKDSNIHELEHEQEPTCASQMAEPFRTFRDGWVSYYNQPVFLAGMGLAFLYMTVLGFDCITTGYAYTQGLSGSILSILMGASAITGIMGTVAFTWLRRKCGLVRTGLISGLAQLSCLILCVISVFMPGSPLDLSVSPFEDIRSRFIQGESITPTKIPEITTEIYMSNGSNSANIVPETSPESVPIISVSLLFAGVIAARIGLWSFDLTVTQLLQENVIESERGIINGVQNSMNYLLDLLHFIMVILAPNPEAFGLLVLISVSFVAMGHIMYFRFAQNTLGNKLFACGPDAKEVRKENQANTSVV
Nature of the assay: T47D cell-based ferroportin internalization assay in presence of mouse serum albumin (MSA). On the set-up: a human breast carcinoma adherent cell line which endogenously expresses ferroportin; host or cells: T47D. Conditions: T47D internalization assay in presence of mouse serum albumin (MSA); Table 6E. On the procedure:
The potency of the peptides in causing ferroportin internalization was evaluated in a T47D cell-based assay. […] In this internalization assay, the potency of the test peptides was evaluated in presence of serum albumin which is the main protein component in the blood. T47D cells were maintained in RPMI media (containing required amount of fetal bovine serum) and regularly sub-cultured. In preparation for the assay, the cells were seeded in 96-well plates at a density of 80-100 k cells per well in 100 ul volume and allowed to rest overnight. […] Sigma, A3139). The test peptide dilution series were allowed to incubate at room temperature for 30 min. Then the media was aspirated from the 96-well cell plate and test peptide dilution series were added. […] The AF647-conjugated detection peptide was previously verified to bind to ferroportin and cause its internalization. The cells were washed again after a 2 hr incubation in preparation for flow cytometry analysis. The Median Fluorescence Intensity (MFI) of the AF647-positive population was measured (after removing dead cells and non-singlets from the analysis). The MFI values were used to generate a dose-response curve and obtain IC50 potencies for the test peptides.
Regarding `CC(C)CC(=O)N[C@@H](CN)C(=O)N[C@H](C(=O)N[C@@H](Cc1c[nH]cn1)C(=O)N[C@H](C(=O)N1CCC[C@H]1C(=O)N[C@H]1CSSC[C@@H](C(=O)N(C)[C@@H](CCCCNC(=O)COCCOCCNC(=O)COCCOCCNC(=O)[C@H](CN)NC(=O)CCCCCCCCCCCCCCCCC(=O)O)C(=O)N[C@H](CC(=O)N[C@H](CCCCN)C(N)=O)Cc2ccccc2)NC1=O)C(c1ccccc1)c1ccccc1)[C@@H](C)O` [compound 289] (Isovaleryl-[Dap]TH[Dip]PCC[NMeK]([AEEA-AEEA-Dap-C18 diacid])[β3hF][dK]-NH2; disulfide 6-7), the IC50 lay within 100 to 500 nM.

On to `CC(C)CC(=O)N[C@@H](CCCC(=O)O)C(=O)N[C@H](C(=O)N[C@@H](Cc1cccnc1)C(=O)N[C@H](C(=O)N1CCC[C@H]1C(=O)N[C@H]1CSSC[C@@H](C(=O)N(C)[C@@H](CCCCNC(=O)COCCOCCNC(=O)COCCOCCNC(=O)[C@H](CN)NC(=O)CCCCCCCCCCCCCCCCC(=O)O)C(=O)N[C@H](CC(=O)N[C@H](CCCCN)C(N)=O)Cc2ccccc2)NC1=O)C(c1ccccc1)c1ccccc1)[C@@H](C)O` [compound 246] (Isovaleryl-[Aad]T[3Pal][Dip]PCC[NMeK]([AEEA-AEEA-Dap-C18 diacid])[β3hF][dK]-NH2; disulfide 6-7), for which the IC50 was in the range of 10 to 100 nM.

Staying with this assay, now noted: Table 6E; T47D internalization assay with MSA.
Take `CC(C)CC(=O)N[C@@H](CCC(=O)O)C(=O)N[C@H](C(=O)N[C@@H](Cc1cnc[nH]1)C(=O)N[C@H](C(=O)N1CCC[C@H]1C(=O)N[C@H]1CSSC[C@@H](C(=O)N(C)[C@@H](CCCCNC(=O)CCCCCNC(=O)C[N+](C)(C)CCNC(=O)CCCCCCCCCCCCCCCCC(=O)O)C(=O)N[C@H](C(=O)N[C@H](CCCCN)C(N)=O)C(c2ccccc2)c2ccccc2)NC1=O)C(c1ccccc1)c1ccccc1)[C@@H](C)O` [compound 198] (Isovaleryl-ETH[Dip]PCC[NMeK]([Ahx-X1])[Dip][dK]-NH2; disulfide 6-7): the IC50 lay in the range of 10 to 100 nM.

In the case of `COC(=O)CC[C@H](NC(=O)CC(C)C)C(=O)N(C)[C@H](C(=O)N[C@@H](Cc1c[nH]cn1)C(=O)N[C@H](C(=O)N1CCC[C@H]1C(=O)N[C@H]1CSSC[C@@H](C(=O)N(C)[C@@H](CCCCNC(=O)CCCCCNC(=O)C[N+](C)(C)CCNC(=O)CCCCCCCCCCCCCCCCC(=O)O)C(=O)N[C@H](C(=O)N(C)[C@@H](CCCCN)C(N)=O)C(c2ccccc2)c2ccccc2)NC1=O)C(c1ccccc1)c1ccccc1)[C@@H](C)O` [compound 153] (Isovaleryl-E(OMe)[NMeT]H[Dip]PCC[NMeK]([Ahx-X1])[Dip][NMeK]-NH2; disulfide 6-7), the IC50 lay in the range of 100 to 500 nM.

For the molecule `COC(=O)CC[C@H](NC(=O)CC(C)C)C(=O)N[C@H](C(=O)N[C@@H](Cc1c[nH]cn1)C(=O)N[C@H](C(=O)N1CCC[C@H]1C(=O)N[C@H]1CSSC[C@@H](C(=O)N[C@@H](CCCCNC(=O)C[N+](C)(C)CCNC(=O)C[N+](C)(C)CCNC(=O)CCCCCCCCCCCCCCCCC(=O)O)C(=O)N[C@H](C(=O)N[C@H](CCCCN)C(N)=O)C(c2ccccc2)c2ccccc2)NC1=O)C(c1ccccc1)c1ccccc1)[C@@H](C)O` [compound 209] (Isovaleryl-E(OMe)TH[Dip]PCCK(X2)[Dip][dK]-NH2; disulfide 6-7), the half-inhibitory concentration (IC50) fell in the range of 10 to 100 nM.

`CC(C)CC(=O)N[C@H]1CCC(=O)NCCCC[C@H](C(N)=O)NC(=O)[C@H](C(c2ccccc2)c2ccccc2)NC(=O)[C@H](CCCCNC(=O)CCCCCNC(=O)C[N+](C)(C)CCNC(=O)CCCCCCCCCCCCCCCCC(=O)O)N(C)C(=O)[C@@H]2CSSC[C@H](NC(=O)[C@@H]3CCCN3C(=O)[C@H](C(c3ccccc3)c3ccccc3)NC(=O)[C@H](Cc3cnc[nH]3)NC(=O)[C@H]([C@@H](C)O)NC1=O)C(=O)N2` [compound 193] (Isovaleryl-ETH[Dip]PCC[NMeK]([Ahx-X1])[Dip][dK]-NH2; lactam 1-10; disulfide 6-7): the IC50 is 10 to 100 nM.

With `CCCCCCCCCCCCCCCC(=O)NCC[N+](C)(C)CC(=O)NCCCC[C@@H](C(=O)N[C@H](C(N)=O)C(c1ccccc1)c1ccccc1)N(C)C(=O)[C@@H]1CSSC[C@H](NC(=O)[C@@H]2CCCN2C(=O)[C@@H](NC(=O)[C@H](Cc2cnc[nH]2)NC(=O)[C@@H]2[C@H](O)CCN2C(=O)[C@H](CCC(=O)O)NC(=O)CC(C)C)C(c2ccccc2)c2ccccc2)C(=O)N1` [compound 150] (Isovaleryl-E[Pro(3R-OH)]H[Dip]PCC[NMeK](X5)[Dip]-NH2; disulfide 6-7), the IC50 lay in the range of 1 to 10 nM.

For `COC(=O)CC[C@H](NC(=O)CC(C)C)C(=O)N[C@H](C(=O)N[C@@H](Cc1c[nH]cn1)C(=O)N[C@H](C(=O)N1CCC[C@H]1C(=O)N[C@H]1CSSC[C@@H](C(=O)N[C@@H](CCCCNC(=O)CCCCCNC(=O)C[N+](C)(C)CCNC(=O)CCCCCCCCCCCCCCCCC(=O)O)C(=O)N[C@H](C(=O)N[C@H](CCCCN)C(N)=O)C(c2ccccc2)c2ccccc2)NC1=O)C(c1ccccc1)c1ccccc1)[C@@H](C)O` [compound 211] (Isovaleryl-E(OMe)TH[Dip]PCCK([Ahx-X1])[Dip][dK]-NH2; disulfide 6-7), the IC50 fell in the range of 10 to 100 nM.

As for `CC(C)CC(=O)N[C@@H](CCC(=O)O)C(=O)N1CC[C@@H](O)[C@H]1C(=O)N[C@@H](Cc1c[nH]cn1)C(=O)N[C@H](C(=O)N1CCC[C@H]1C(=O)N[C@H]1CSSC[C@@H](C(=O)N(C)[C@@H](CCCCNC(=O)CCCCCNC(=O)C[N+](C)(C)CCNC(=O)CCCCCCCCCCCCCCCCC(=O)O)C(=O)N[C@H](C(=O)N(C)[C@@H](CCCCN)C(N)=O)C(c2ccccc2)c2ccccc2)NC1=O)C(c1ccccc1)c1ccccc1` [compound 156] (Isovaleryl-E[Pro(3R-OH)]H[Dip]PCC[NMeK]([Ahx-X1])[Dip][NMeK]-NH2; disulfide 6-7), the IC50 was 10 to 100 nM.

For `CCCCCCCCCCCCCCCC(=O)NCCCCCC(=O)NCCCC[C@@H](C(=O)N[C@H](C(=O)N[C@H](CCCCN)C(N)=O)C(c1ccccc1)c1ccccc1)N(C)C(=O)[C@@H]1CSSC[C@H](NC(=O)[C@@H]2CCCN2C(=O)[C@@H](NC(=O)[C@H](Cc2cnc[nH]2)NC(=O)[C@@H]2CCCN2C(=O)[C@H](CCC(=O)O)NC(=O)CC(C)C)C(c2ccccc2)c2ccccc2)C(=O)N1` [compound 171] (Isovaleryl-EPH[Dip]PCC[NMeK]([Ahx-Palmitoyl])[Dip][dK]-NH2; disulfide 6-7), the IC50 lay in the range of 1 to 10 nM.

Turning to `CC(C)CC(=O)N[C@@H](CCC(=O)O)C(=O)N1CCC[C@H]1C(=O)N[C@@H](Cc1c[nH]cn1)C(=O)N[C@H](C(=O)N1CCC[C@H]1C(=O)N[C@H]1CSSC[C@@H](C(=O)N(C)[C@@H](CCCCNC(=O)CCCCCNC(=O)C[N+](C)(C)CCNC(=O)CCCCCCCCCCCCCCCCC(=O)O)C(=O)N[C@H](C(=O)N[C@H](CCCCN)C(N)=O)C(c2ccccc2)c2ccccc2)NC1=O)C(c1ccccc1)c1ccccc1` [compound 188] (Isovaleryl-EPH[Dip]PCC[NMeK]([Ahx-X1])[Dip][dK]-NH2; disulfide 6-7), the IC50 is > 500 nM.

Turning to `CCCCCCCCCCCCCCCC(=O)NCC[N+](C)(C)CC(=O)NCCCCCC(=O)NCCCC[C@@H](C(=O)N[C@H](C(=O)N[C@H](CCCCN)C(N)=O)C(c1ccccc1)c1ccccc1)N(C)C(=O)[C@@H]1CSSC[C@H](NC(=O)[C@@H]2CCCN2C(=O)[C@@H](NC(=O)[C@H](Cc2cnc[nH]2)NC(=O)[C@H]([C@@H](C)O)N(C)C(=O)[C@H](CCC(=O)O)NC(=O)CC(C)C)C(c2ccccc2)c2ccccc2)C(=O)N1` [compound 170] (Isovaleryl-E[NMeT]H[Dip]PCC[NMeK]([Ahx-X5])[Dip][dK]-NH2; disulfide 6-7), the IC50 lay in the range of 1 to 10 nM.

As to `COCCOCCOCCOCCOCCOCCOCCOCCOCCOCCOCCOCCC(=O)NCCCC[C@@H](NC(=O)[C@@H](NC(=O)[C@H](CCCCNC(=O)COCCOCCNC(=O)COCCOCCNC(=O)C[N+](C)(C)CCNC(=O)CCCCCCCCCCCCCCCCC(=O)O)NC(=O)[C@@H]1CSSC[C@H](NC(=O)[C@@H]2CCCN2C(=O)[C@@H](NC(=O)[C@H](Cc2c[nH]cn2)NC(=O)[C@@H](NC(=O)[C@H](CCC(=O)O)NC(=O)CC(C)C)[C@@H](C)O)C(c2ccccc2)c2ccccc2)C(=O)N1)C(c1ccccc1)c1ccccc1)C(N)=O` [compound 203] (Isovaleryl-ETH[Dip]PCCK([AEEA-AEEA-X1])[Dip][dK](CH3O(CH2CH2O)11CH2CH2CO)-NH2; disulfide 6-7), the IC50 lay in the range of 10 to 100 nM.

As for `CCCCCCCCCCCCCCCC(=O)NCC[N+](C)(C)CC(=O)NCCCC[C@@H](C(=O)N[C@H](C(=O)N[C@H](CCCCN)C(N)=O)C(c1ccccc1)c1ccccc1)N(C)C(=O)[C@@H]1CSSC[C@H](NC(=O)[C@@H]2CCCN2C(=O)[C@@H](NC(=O)[C@H](Cc2c[nH]cn2)NC(=O)[C@@H]2[C@H](O)CCN2C(=O)[C@H](CCC(=O)OC)NC(=O)CC(C)C)C(c2ccccc2)c2ccccc2)C(=O)N1` [compound 151] (Isovaleryl-E(OMe)[Pro(3R-OH)]H[Dip]PCC[NMeK](X5)[Dip][dK]-NH2; disulfide 6-7), the IC50 fell in the range of 1 to 10 nM.

By IC50 is commonly meant the midpoint of a concentration-inhibition curve.
